Results as given in PubChem BioAssay AID588388 (NMMLSC, 2011).
pEC50: −log10 of the molar value. Calls of active or inactive are those of the source.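 The calls were made as follows: active = half-effect dose EC50 at most 10 µM and% response shifting 30% or more across doses, valid fit; inactive = the rest.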

Target: GTPase HRas (Homo sapiens) (UniProt P01112)
Assay: wild-type H-Ras GTP-binding inhibitors, SAR follow-up, biochemical, multiplex bead flow cytometry, round 1 (AID 588388)
Settings: GST-H-Ras beads, Bodipy-GTP binding, EDTA; for % response (lower = inhibition): at 100 µM (top of the series)

Sequence of GTPase HRas (Homo sapiens) (P01112 whole entry, looked up): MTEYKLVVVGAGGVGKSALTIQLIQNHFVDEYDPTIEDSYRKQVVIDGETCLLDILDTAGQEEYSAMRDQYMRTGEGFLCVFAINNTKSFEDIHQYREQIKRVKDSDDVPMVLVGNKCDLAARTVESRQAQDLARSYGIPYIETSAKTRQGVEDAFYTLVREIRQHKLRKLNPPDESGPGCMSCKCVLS

% response (lower = inhibition)	pEC50	Compound
inactive		CCOC(=O)c1c(NC(=O)Nc2ccc(F)cc2)sc2c1CCN(C)C2
	7.17	CC1(C)CCc2sc(NC(=S)NC(=O)c3ccccc3)c(C(=O)O)c2C1
inactive		CC1(C)Cc2c(sc(NC(=S)Nc3ccccc3)c2C(=O)O)CO1
	7.34	CC1(C)Cc2c(sc(NC(=S)NC(=O)c3ccccc3Br)c2C(=O)O)CO1
inactive		CN1CCc2c(sc(NC(=O)Nc3ccc(F)cc3)c2C(=O)O)C1
inactive		CCOC(=O)c1c(NC(=O)Nc2ccc(C)cc2)sc2c1CCN(C)C2
inactive		Cc1ccc(Nc2nc3sc4c(c3c(=O)o2)CCN(C)C4)cc1
	6.97	COc1ccc(C(=O)NC(=S)Nc2sc3c(c2C(=O)O)CC(C)(C)OC3)cc1
inactive		CCOC(=O)c1c(NC(=S)Nc2ccccc2)sc2c1CC(C)(C)OC2
inactive		CC1(C)Cc2c(sc(NC(=O)Cc3ccccc3)c2C(=O)O)CO1
	7.48	O=C(NC(=S)Nc1sc2c(c1C(=O)O)CCOC2)c1ccccc1
	6.59	CC1(C)Cc2c(sc(NC(=S)NC(=O)c3ccc(Br)cc3)c2C(=O)O)CO1
inactive		CN1CCc2c(sc3nc(Nc4ccc(F)cc4)oc(=O)c23)C1
	7.52	COc1cccc(C(=O)NC(=S)Nc2sc3c(c2C(=O)O)CC(C)(C)OC3)c1
	6.83	CC1(C)Cc2c(sc(NC(=O)NC(=O)c3ccccc3)c2C(=O)O)CO1
	7.30	CC1(C)Cc2c(sc(NC(=S)NC(=O)c3ccccc3F)c2C(=O)O)CO1
inactive		CCOC(=O)c1c(N)sc2ccccc12
inactive		CC1(C)Cc2c(sc(NC(=S)NC(=O)c3cccc(Br)c3)c2C(=O)O)CO1
inactive		COC(=O)c1c(NC(=S)NC(=O)c2ccccc2)sc2c1CC(C)(C)OC2
inactive		CC(C)(C)OC(=O)c1c(NC(=S)NC(=O)c2ccccc2)sc2c1CCOC2
inactive		CCOC(=O)c1c(NC(=S)NC(=O)c2ccccc2)sc2ccccc12
	6.54	CC1(C)Cc2c(sc(NC(=S)NC(=O)c3cccc(F)c3)c2C(=O)O)CO1
inactive		COC(=O)c1c(N)sc2c1CC(C)(C)OC2
	7.27	CC1Cc2c(sc(NC(=S)NC(=O)c3ccccc3)c2C(=O)O)CO1 (configuration not stated)
	7.11	CC1(C)Cc2c(sc(NC(=S)NC(=O)c3ccccc3)c2C(=O)O)CO1
inactive		CCOC(=O)c1c(NC(=O)NC(C)(C)C)sc2c1CCN(C)C2
inactive		Cc1ccc(NC(=O)Nc2sc3c(c2C(=O)O)CCN(C)C3)cc1
